Laboratory results reported in patent US20260028364A1, “CATIONIC CHROMENONES AND THEIR USE IN ONCOLOGY” (FLORATEK PHARMA S.A., priority 2022, published 2026).

Columns and labels:
Format in all cases: cell-based
Kelly = test: CellTiter-Glo cell viability, Kelly; conditions: Kelly cells, 72 h with compound
Protocol: (§1) Antitumor activity against a panel of cancer cell lines Antitumor activity of the compounds was assessed by using the CellTiter-Glow® Luminescent Cell Viability assay (Promega #G7572) according to the manufacturer's instructions. The compounds were tested at 5 or 6 concentrations in 1:2 dilution increments (highest concentration 10 µM) in triplicate well conditions.
(§2) Tumor cells were grown at 37° C. in a humidified atmosphere with 5% CO2 in RPMI 1640 or DMEM medium, supplemented with 10% (v/v) fetal calf serum and 50 μg/ml gentamicin for up to 20 passages, and were passaged once or twice weekly. Cells were harvested using TrypLE or PBS buffer containing 1 mM EDTA, and the percentage of viable cells is determined using a cell counter.
(§3) Cells were harvested from exponential phase cultures, counted and plated in 96 well flat-bottom microtiter plates at a cell density depending on the cell line's growth rate (4,000-20,000 cells/well depending on the cell line's growth rate) in RPMI 1640 or DMEM medium supplemented with 10% (v/v) fetal calf serum and 50 μg/ml gentamicin (140 μl/well). Cultures were incubated at 37° C. and 5% CO2 in a humidified atmosphere. After 24 h, 10 μl of test compounds or control medium are added, and left on the cells for another 72 h. Compounds were serially diluted in DMSO, transferred in cell culture medium, and added to the assay plates. The DMSO concentration was kept constant at <0.2% v/v across the assay plate. Viability of cells was quantified by the CellTiter-Glow® Luminescent Cell Viability assay (Promega #G7572). Luminescence was measured with the microplate luminometer (En Vision Perkin Elmer).
Sigmoidal concentration-response curves were fitted to the data points (test-versus-control, T/C values) obtained for each tumor model using Graph Pad prism 5.02 software. IC50 values are reported as absolute IC50 values, being the concentration of test compound at the intersection of the concentration-response curves with T/C=50%.

LoVo = test: CellTiter-Glo cell viability, LoVo; conditions: Homo sapiens; LoVo cells, 72 h with compound
Protocol: as §1, §2
as §3, with “After 24 h, 10 μl of test compounds or control medium are added, and left on the cells for another 72 h. Compounds were serially diluted in DMSO, transferred in cell culture medium, and added to the assay plates. The DMSO concentration was kept constant at <0.2% v/v across the assay plate.” left out, “Elmer). […]” for “Elmer).”

JAK/STAT = test: SelectScreen CellSensor pathway inhibition, JAK/STAT; conditions: Homo sapiens; ISRE-bla Jurkat, stimulus IFN-alpha
Protocol: (§4) Inhibition of various cellular pathways known to be involved in malignancy was tested using the SelectScreen Cell-based Pathway Profiling GeneBLAzer™ cell signaling pathway specific CellSensor™ cell lines ((Thermo Fisher). The assay is based on a beta-lactamase reporter activity which is modulated and can be measured quantitatively and selectively with the LiveBLAzer™-FRET B/G Loading Substrate. SelectScreen Cell-Based Pathway Profiling Service uses XLfit from IDBS. The dose response curve is curve fit to model number 205 (sigmoidal dose-response model). Custom logic was built by Thermo Fisher for the data analysis tool to address the different compound characteristics that can be observed with functional assays.
JAK/STAT—ISRE-bla HEK 293T—Inhibitor Screen, Activated by IFN-Alpha
ISRE-bla HEK 293T cells are thawed and resuspended in Assay Media (OPTI-MEM, 0.5% dialyzed FBS, 0.1 mM NEAA, 1 mM Sodium Pyruvate, 100 U/mL/[…] Pen/Strep) to a concentration of 625,000 cells/mL. 32 μL of cell suspension is added to each well of a 384-well TC-Treated assay plate. Cells in Assay Media are incubated for 16-24 hours in the plate at 37° C./5% CO2 in a humidified incubator. […] 4 μL of 10× control activator IFN-alpha at the pre-determined EC80 concentration is added to wells containing the control inhibitor or compounds. […] The plate is read on a fluorescence plate reader.

SHP-77 = test: CellTiter-Glo cell viability, SHP-77; conditions: Homo sapiens, SHP77; SHP-77 cells, 72 h with compound
Protocol: as §1, §2
as §3, with “After 24 h, 10 μl of test compounds or control medium are added, and left on the cells for another 72 h. Compounds were serially diluted in DMSO, transferred in cell culture medium, and added to the assay plates. The DMSO concentration was kept constant at <0.2% v/v across the assay plate.” left out, “Elmer). […]” for “Elmer).”

Oxidative Stress = test: SelectScreen CellSensor pathway inhibition, Oxidative Stress; conditions: Homo sapiens; ARE-bla HepG2, stimulus tBHQ
Protocol: as §4
Oxidative Stress—ARE-bla HepG2—Inhibitor Screen, Activated by tBHQ
ARE-bla HepG2 cells are thawed and resuspended in Assay Media (DMEM, 10% dialyzed FBS, 25 mM HEPES pH 7.3, 0.1 mM NEAA, 100 U/mL/100 μg/mL Pen/Strep) to a concentration of 375,000 cells/mL. 32 μL of cell suspension is added to each well of a 384-well Poly-D-Lysine assay plate. Cells in Assay Media are incubated for 16-24 hours in the plate at 37° C./5% CO2 in a humidified incubator. […] The plate is read on a fluorescence plate reader.

NFKB = test: SelectScreen CellSensor pathway inhibition, NFKB; conditions: Homo sapiens; NFKB-bla Jurkat, stimulus TNF-alpha
Protocol: as §4
NFKB—NFKB-bla Jurkat—Inhibitor Screen, Activated by TNF-Alpha
NFKB-bla Jurkat cells are thawed and resuspended in Assay Media (DMEM, 10% dialyzed FBS, 25 mM HEPES pH 7.3, 0.1 mM NEAA, 100 U/mL/100 μg/mL Pen/Strep) to a concentration of 625,000 cells/mL. […] 4 μL of 10×control activator TNF-alpha at the pre-determined EC80 concentration is added to wells containing the control inhibitor or compounds.
The plate is incubated for 5 hours at 37° C./5% CO2 in a humidified incubator. […] The plate is read on a fluorescence plate reader.

Raji = test: CellTiter-Glo cell viability, Raji; conditions: Homo sapiens; Raji cells, 72 h with compound
Protocol: as §1, §2
as §3, with “After 24 h, 10 μl of test compounds or control medium are added, and left on the cells for another 72 h. Compounds were serially diluted in DMSO, transferred in cell culture medium, and added to the assay plates. The DMSO concentration was kept constant at <0.2% v/v across the assay plate.” left out, “Elmer). […]” for “Elmer).”

NALM-6 = test: CellTiter-Glo cell viability, NALM-6; conditions: Homo sapiens; NALM-6 cells, 72 h with compound
Protocol: as §1, §2
as §3, with “After 24 h, 10 μl of test compounds or control medium are added, and left on the cells for another 72 h. Compounds were serially diluted in DMSO, transferred in cell culture medium, and added to the assay plates. The DMSO concentration was kept constant at <0.2% v/v across the assay plate.” left out, “Elmer). […]” for “Elmer).”

IC50 (LoVo): 910 nM
IC50 (JAK/STAT): 360 nM
IC50 (Oxidative Stress): 1350 nM
IC50 (NFKB): 1530 nM
IC50 (Raji): 530 nM
SMILES: COc1ccc2c(=O)c(-c3ccc(CCCC[P+](c4ccccc4)(c4ccccc4)c4ccccc4)cc3)coc2c1OC.[Br-] [SND470, (4-(4-(7,8-Dimethoxy-4-oxo-4H-chromen-3-yl)phenyl)butyl)triphenylphosphonium bromide]
IC50 (Kelly): 12 nM
IC50 (SHP-77): 920 nM
IC50 (NALM-6): 250 nM
